Experiments:
Vanilloid receptor [1] = target: T1, Vanilloid receptor (Rattus norvegicus, UniProt Q9ERZ8+Q9WUD2+O35433); experiment: Ability to inhibit [Ca2+] influx neonatal rat cultured spinal sensory neurons.; assay type: functional
Vanilloid receptor [2] = target: T1, Vanilloid receptor; experiment: Ability to cause [Ca2+] influx in neonatal rat cultured spinal sensory neurons.; assay type: functional

| SMILES | IC50 (Vanilloid receptor [1]) | EC50 (Vanilloid receptor [2]) |
| --- | --- | --- |
| CCC(CCc1ccc(O)c(OC)c1)CC(=O)NCCc1ccccc1 (stereo not given) | > 30 µM | > 100 µM |
| COc1cc(CC(C)O/C(S)=N/CCc2ccccc2)ccc1O (stereo not given) | > 30 µM | > 100 µM |
| CCC(CCc1ccc(O)c(OC)c1)N(C)/C(S)=N/CCc1ccccc1 (stereo not given) | 27.2 µM | > 100 µM |
| CCC(CCc1ccc(O)c(OC)c1)NC(=O)NCCc1ccccc1 (stereo not given) | > 30 µM | > 100 µM |
| CCC(CCc1ccc(O)c(OC)c1)OC(=O)NCCc1ccccc1 (stereo not given) | > 30 µM | > 100 µM |
| CCC(CCc1ccc(O)c(OC)c1)C/C(S)=N/CCc1ccccc1 (stereo not given) | > 30 µM | > 100 µM |
| COc1cc(CCCO/C(S)=N/CCc2ccccc2)ccc1O | > 30 µM | > 100 µM |
| CCC(CCc1ccc(O)c(OC)c1)/N=C(\S)NCCc1ccccc1 (stereo not given) | 28.5 µM | > 100 µM |
| Oc1cc2c(cc1O)CN(C(=S)NCCc1ccc(Cl)cc1)CCC2 [CAPSAZEPINE] | 0.6 µM | > 100 µM |

The next lines start with the values.

| IC50 (Vanilloid receptor [1]) | EC50 (Vanilloid receptor [2]) | SMILES |
| --- | --- | --- |
| 6.3 µM | > 100 µM | CCC(CCc1ccc(O)c(OC)c1)O/C(S)=N/CCc1ccccc1 (stereo not given) |
| 10.7 µM | > 100 µM | COc1cc(CCC(CCc2ccc(C(F)(F)F)cc2)O/C(S)=N/CCc2ccccc2)ccc1O (stereo not given) |
| 27.9 µM | > 100 µM | CCCC(CCc1ccc(O)c(OC)c1)O/C(S)=N/CCc1ccccc1 (stereo not given) |
| 19.2 µM | > 100 µM | COc1cc(CCC(CCc2ccccc2)O/C(S)=N/CCc2ccccc2)ccc1O (stereo not given) |
| > 30 µM | > 100 µM | CCC(CCc1ccc(O)c(OC)c1)N(CCc1ccccc1)/C(S)=N/CCc1ccccc1 (stereo not given) |
| > 30 µM | > 100 µM | COc1cc(CCCC(C)O/C(S)=N/CCc2ccccc2)ccc1O (stereo not given) |
| 25 µM | > 100 µM | COc1cc(CCC(Cc2ccccc2)O/C(S)=N/CCc2ccccc2)ccc1O (stereo not given) |
| > 30 µM | > 100 µM | COc1cc(CCC(O/C(S)=N/CCc2ccccc2)c2ccccc2)ccc1O (stereo not given) |
| 20.9 µM | > 100 µM | CCC(CCc1ccc(O)c(OC)c1)N(Cc1ccccc1)/C(S)=N/CCc1ccccc1 (stereo not given) |
| > 30 µM | > 100 µM | COc1cc(CCC(CCCc2ccccc2)O/C(S)=N/CCc2ccccc2)ccc1O (stereo not given) |
| 9.9 µM | > 100 µM | COc1cc(CCC(C)O/C(S)=N/CCc2ccccc2)ccc1O (stereo not given) |
